Laboratory results from patent US20040029823A1, “Antisense oligonucleotide compositions and methods for the modulation of JNK proteins” (priority 1997, published 2004).
Strand notation (5' to 3'): a small letter for the sugar, then the base; units joined by * are phosphorothioate-linked, units joined directly phosphodiester-linked; [ ] holds rarer units or linkages, { } end groups; capitals alone tell only the bases. e = 2'-O-(2-methoxyethyl) (MOE); [5mC] = 5-methylcytosine; d = 2'-deoxy (DNA)

Legend:
[1] = tested on: rat JNK2 mRNA; experiment: Northern assay of rat JNK2 (p54a) mRNA in A10 aortic smooth muscle cells; type: cell-based; set-up: inhibition of rat JNK2 mRNA levels / % INHIBITION: concentration or dose not given beside the values; settings: for % INHIBITION / % EXPRESSION: rat JNK2 (p54a) mRNA in A10 cells; for % EXPRESSION: relative to LIPOFECTIN-only control; for inhibition of rat JNK2 mRNA levels: A10 cells (Table 22); for % EXPRESSION JNK2 / capacity to modulate both JNK1 and JNK2 (Pan JNK): A10 cells; for capacity to modulate both JNK1 and JNK2 (Pan JNK): rat JNK1 and JNK2 mRNA
Experimental: (§1) In order to study the role of JNK proteins in animal models, oligonucleotides targeted to the genes encoding JNK1, JNK2 and JNK3 of Rattus norvegicus were prepared. These oligonucleotides are 2′-methoxyethoxy, phosphodiester/2′-hydroxyl, phosphorothioate/2′-methoxyethoxy, phosphodiester “gapmers” in which every cytosine residue is 5-methylcytosine (m5c). These antisense compounds were synthesized according to the methods of the disclosure. Certain of these oligonucleotides are additionally specifically hybridizable to JNK genes from other species as indicated herein. The oligonucleotides described in this Example were tested for their ability to modulate rat JNK mRNA levels essentially according to the methods described in the preceding Examples, with the exceptions that the cell line used was rat A10 aortic smooth muscle cells (ATCC No. ATCC CRL-1476) and the probes used were specific for rat JNK1, JNK2 or JNK3 (see infra). A10 cells were grown and treated with oligonucleotides essentially as described by (Cioffi et al. Mol. Pharmacol., 1997, 51, 383).
(§2) These antisense compounds were tested for their ability to modulate levels of p54? (JNK1) and p54a (JNK2) mRNA in A10 cells via Northern assays. Due to the high degree of sequence identity between the human and rat genes, radiolabeled human JNK1 (Example 3) and JNK2 (Example 4) cDNAs functioned as specific probes for the rat homologs.
These antisense compounds were tested for their ability to modulate levels of p54a (JNK2) mRNA in A10 cells using the radiolabeled human JNK2 cDNA as a probe as described supra. Oligonucleotides showing levels of inhibition from ≧ about 60% to about 100% of rat JNK2 mRNA levels include ISIS Nos. 18254, 18255, 18257, 18258, 18259, 18260 and 18265 (SEQ ID NOS: 125, 126, 128, 129, 130, 131 and 136, respectively). These oligonucleotides are preferred embodiments of the invention for modulating rat JNK2 expression. […] These oligonucleotides are thus more preferred embodiments of the invention for modulating rat JNK2 expression. ISIS 18259 (SEQ ID NO: 130) was chosen for use in further studies (infra).

[2] = tested on: rat JNK1 mRNA; experiment: Northern assay of rat JNK1 (p54?) mRNA in A10 aortic smooth muscle cells; type: cell-based; settings: for % EXPRESSION JNK1: A10 cells; for inhibition of rat JNK1 mRNA levels: A10 cells (Table 20)
Experimental: as §1, §2

[3] = rat JNK1 mRNA, oligonucleotides targeted to rat JNK1
[4] = rat JNK2 mRNA, oligonucleotides targeted to rat JNK1

Substance | % INHIBITION [1] [%] | % EXPRESSION [1] [%] | % EXPRESSION JNK1 [2, 3] [%] | % EXPRESSION JNK2 [1, 4] [%] | inhibition of rat JNK1 mRNA levels [2] | other results
10260 (antisense eAeTe[5mC]eTeG*d[5mC]*dG*dA*dG*dG*dT*dT*dT*d[5mC]*dA*eTe[5mC]eGeGe[5mC]) [compound 10260] | 59 | 41 | – | – | – | –
18254 (antisense eTe[5mC]eAeTeG*dA*dT*dG*dT*dA*dG*dT*dG*dT*d[5mC]*eAeTeAe[5mC]eA) [compound 18254] | 80 | 20 | – | – | – | –
18255 (antisense eTeGeTeGeG*dT*dG*dT*dG*dA*dA*d[5mC]*dA*d[5mC]*dA*eTeTeTeAeA) [compound 18255] | 79 | 21 | – | – | – | –
18256 (antisense e[5mC]e[5mC]eAeTeA*dT*dG*dA*dA*dT*dA*dA*d[5mC]*d[5mC]*dT*eGeAe[5mC]eAeT) [compound 18256] | 20 | 80 | – | – | – | –
18257 (antisense eGeAeTeAeT*d[5mC]*dA*dA*d[5mC]*dA*dT*dT*d[5mC]*dT*d[5mC]*e[5mC]eTeTeGeT) [compound 18257] | 68 | 32 | – | – | – | inhibition of rat JNK2 mRNA levels [1]: ≥ 60%
18258 (antisense eGe[5mC]eTeTe[5mC]*dG*dT*d[5mC]*d[5mC]*dA*d[5mC]*dA*dG*dA*dG*eAeTe[5mC]e[5mC]eG) [compound 18258] | 81 | 19 | – | – | – | –
18259 (antisense eGe[5mC]eTe[5mC]eA*dG*dT*dG*dG*dA*d[5mC]*dA*dT*dG*dG*eAeTeGeAeG) [compound 18259] | 85 | 15 | – | – | – | % EXPRESSION JNK1 ([2]; dose response, 10 nM): 95%; % EXPRESSION JNK1 ([2]; dose response, 50 nM): 101%; % EXPRESSION JNK1 ([2]; dose response, 100 nM): 94%; % EXPRESSION JNK1 ([2]; dose response, 200 nM): 89%; % EXPRESSION JNK2 ([1]; dose response, 10 nM): 81%; % EXPRESSION JNK2 ([1]; dose response, 50 nM): 35%; % EXPRESSION JNK2 ([1]; dose response, 100 nM): 15%; % EXPRESSION JNK2 ([1]; dose response, 200 nM): 5%
18260 (antisense eAeTe[5mC]eTeG*d[5mC]*dG*dA*dG*dG*dT*dT*dT*d[5mC]*dA*eTe[5mC]eGeGe[5mC]) [compound 18260] | – | – | – | – | – | inhibition of rat JNK2 mRNA levels [1]: ≥ 60%
18261 (antisense e[5mC]e[5mC]eAe[5mC]e[5mC]*dA*dG*d[5mC]*dT*d[5mC]*d[5mC]*d[5mC]*dA*dT*dG*eTeGe[5mC]eTe[5mC]) [compound 18261] | 53 | 47 | – | – | – | –
18262 (antisense e[5mC]eAeGeTeT*dA*d[5mC]*dA*d[5mC]*dA*dT*dG*dA*dT*d[5mC]*eTeGeTe[5mC]eA) [compound 18262] | 50 | 50 | – | – | – | –
18263 (antisense eAeAeGeAeG*dG*dA*dT*dT*dA*dA*dG*dA*dG*dA*eTeTeAeTeT) [compound 18263] | 37 | 63 | – | – | – | –
18264 (DNA eAeGe[5mC]eAeG*dA*dG*dT*dG*dA*dA*dA*dT*dA*d[5mC]*eAeAe[5mC]eTeT; antisense) [compound 18264] | 52 | 48 | – | – | – | –
18265 (DNA eTeGeTe[5mC]eA*dG*d[5mC]*dT*d[5mC]*dT*dA*d[5mC]*dA*dT*dT*eAeGeGe[5mC]eA; antisense) [compound 18265] | 62 | 38 | – | – | – | inhibition of rat JNK2 mRNA levels [1]: ≥ 60%
18266 (DNA eAeGeTeAeA*dG*d[5mC]*d[5mC]*d[5mC]*dG*dG*dT*d[5mC]*dT*d[5mC]*e[5mC]eTeAeAeG; antisense) [compound 18266] | 34 | 66 | – | – | – | –
18267 (DNA eAeAeAeTeG*dG*dA*dA*dA*dA*dG*dG*dA*d[5mC]*dA*eGe[5mC]eAeGe[5mC]; antisense) [compound 18267] | 16 | 84 | – | – | – | –
21857 (DNA e[5mC]eAeAe[5mC]eG*dT*d[5mC]*d[5mC]*d[5mC]*dG*d[5mC]*dG*d[5mC]*dT*d[5mC]*eGeGe[5mC]e[5mC]eG; antisense) [compound 21857] | – | – | 24 | 91 | – | –
21858 (DNA e[5mC]e[5mC]eTeGe[5mC]*dT*d[5mC]*dG*d[5mC]*dG*dG*d[5mC]*dT*d[5mC]*d[5mC]*eGe[5mC]eGeTeT; antisense) [compound 21858] | – | – | 8 | 89 | at least 90% | –
21859 (DNA e[5mC]eTe[5mC]eAeT*dG*dA*dT*dG*dG*d[5mC]*dA*dA*dG*d[5mC]*eAeAeTeTeA) [compound 21859] | – | – | 5 | 106 | at least 90% | % EXPRESSION JNK1 ([2]; dose response, 10 nM): 74%; % EXPRESSION JNK1 ([2]; dose response, 50 nM): 25%; % EXPRESSION JNK1 ([2]; dose response, 100 nM): 11%; % EXPRESSION JNK1 ([2]; dose response, 200 nM): 8%; % EXPRESSION JNK2 ([1]; dose response, 10 nM): 101%; % EXPRESSION JNK2 ([1]; dose response, 50 nM): 98%; % EXPRESSION JNK2 ([1]; dose response, 100 nM): 99%; % EXPRESSION JNK2 ([1]; dose response, 200 nM): 101%
21860 (DNA eTeGeTeTeG*dT*d[5mC]*dA*d[5mC]*dG*dT*dT*dT*dA*d[5mC]*eTeTe[5mC]eTeG; antisense) [compound 21860] | – | – | 8 | 98 | at least 90% | –
21861 (DNA e[5mC]eGeGeTeA*dG*dG*d[5mC]*dT*d[5mC]*dG*d[5mC]*dT*dT*dA*eGe[5mC]eAeTeG; antisense) [compound 21861] | – | – | 6 | 13 | at least 90% | capacity to modulate both JNK1 and JNK2 (Pan JNK) [1]: demonstrated a capacity to modulate both JNK1 and JNK2
21862 (DNA e[5mC]eTeAeGeG*dG*dA*dT*dT*dT*d[5mC]*dT*dG*dT*dG*eGeTeGeTeG; antisense) [compound 21862] | – | – | 6 | 133 | at least 90% | –
21863 (DNA e[5mC]eAeGe[5mC]eA*dG*dA*dG*dT*dG*dA*dA*dG*dG*dT*eGe[5mC]eTeTeG; antisense) [compound 21863] | – | – | 24 | 107 | – | –
21864 (DNA eTe[5mC]eGeTeT*d[5mC]*d[5mC]*dT*dG*d[5mC]*dA*dG*dT*d[5mC]*d[5mC]*eTeTeGe[5mC]e[5mC]; antisense) [compound 21864] | – | – | 8 | 106 | at least 90% | –
21865 (DNA e[5mC]e[5mC]eAeTeT*dT*d[5mC]*dT*d[5mC]*d[5mC]*d[5mC]*dA*dT*dA*dA*eTeGe[5mC]eAe[5mC]; antisense) [compound 21865] | – | – | 5 | 50 | at least 90% | –
21866 (DNA eTeGeAeAeT*dT*d[5mC]*dA*dG*dG*dA*d[5mC]*dA*dA*dG*eGeTeGeTeT; antisense) [compound 21866] | – | – | 8 | 98 | at least 90% | –
21867 (DNA eAeGe[5mC]eTeT*d[5mC]*dG*dT*d[5mC]*dT*dA*d[5mC]*dG*dG*dA*eGeAeTe[5mC]e[5mC]; antisense) [compound 21867] | – | – | 5 | 21 | at least 90% | capacity to modulate both JNK1 and JNK2 (Pan JNK) [1]: demonstrated a capacity to modulate both JNK1 and JNK2
21868 (DNA e[5mC]eAe[5mC]eTe[5mC]*d[5mC]*dT*d[5mC]*dT*dA*dT*dT*dG*dT*dG*eTeGe[5mC]eTe[5mC]; antisense) [compound 21868] | – | – | 15 | 112 | – | –
